Experimental data from patent US20260364184A1, “COMPOUND BASED ON OXOISOINDOLINYL-SUBSTITUTED TETRAHYDROPYRIMIDINE-DIONE AND USE THEREOF” (GLUETACS THERAPEUTICS (SHANGHAI) CO., LTD., priority 2023, published 2026).

What was measured:
[1] = target: T1, CDK4 (Homo sapiens, UniProt P11802+Q96SW2); experiment: Western blot degradation of CDK4; format: cell-based; settings: MDA-MB-231 Cell; 24 hours
T1 construct: expression of target proteins in cells; endogenous in cells
Protocol: (§1) Conventional Western blot assay was performed to evaluate the effects of the compounds of the present disclosure on the expression of target proteins in cells.
(§2) (1) Cell Seeding and Protein Harvesting: The selected cells were processed according to the cell seeding procedure and protein harvesting procedure in Table II-2.
(§3) (2) To the collected supernatant, 5×SDS sample loading buffer was added, followed by denaturation at 95 °C for 5 minutes. The denatured samples were then separated by SDS-PAGE electrophoresis on a polyacrylamide gel. Proteins were transferred to a nitrocellulose membrane (0.45 μm NC membrane), blocked with blocking buffer at room temperature for 1 hour, and subjected to antibody incubation and development procedures according to the antibody manufacturer's instructions (Cell Signaling Technology).
(§4) Half-Maximal Degradation Concentration value (the drug concentration required for degrading proteins by 50%, abbreviated as DC50) reads method: comparing the grayscale values of Western blot bands from drug-treated samples with those from blank DMSO-treated controls, and identifying the drug concentration range at which the grayscale value is half that of the DMSO-treated control bands.
(§5) DC50 values can be calculated using ImageJ software to measure grayscale values of Western blot bands from drug-treated samples. The concentration-response curve is fitted to estimate the drug concentration corresponding to half the grayscale value.
(§6) Target protein remaining (%) refers to the percentage of target protein remaining in cells after treatment with protein degrader compounds.
(§7) Calculation method for target protein remaining (%): Use ImageJ software to measure grayscale values of Western blot bands from drug (protein degrader)-treated samples. The grayscale value of drug-treated bands is divided by that of internal control protein bands, and the resulting quotient is normalized to obtain the relative percentage of remaining target protein after protein degrader treatment.
(§8) Target protein degradation rate (%)=1−target protein remaining (%).

[2] = target: T2, CDK6 (Homo sapiens, UniProt Q00534+Q96SW2); experiment: Western blot degradation of CDK6; format: cell-based; settings: MDA-MB-231 Cell; 24 hours
T2 construct: expression of target proteins in cells; endogenous in cells
Protocol: as §1, §2, §3, §4, §5, §6, §7, §8

[3] = target: T3, human Cereblon WT GST-tagged protein (CRBN) (Homo sapiens, UniProt Q96SW2); experiment: CRBN binding by HTRF (Cereblon binding kit)
T3 construct: purchased CISBIO 64BDCRBNPEH
How it was run: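 GST-tagged human Cereblon WT was incubated 3 h at room temperature with compound, thalidomide-Re tracer and Eu anti-GST antibody. Final compound concentrations were 10 to 0.00064 µM (7 points) or 2 and 0.5 µM. Inhibition rate was calculated from HTRF 665/620 nm ratios versus solvent and blank controls.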

[4] = test system: Human myeloid monocytic leukemia cell line (MV-4-11); experiment: Inhibition of MV-4-11 cell proliferation (CellTiter luminescent viability); format: cell-based; settings: Homo sapiens, MV4-11, Table IE3, CDK4/6 inhibitor-based, 96 hours
How it was run: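 Cells are seeded in 96-well plates, cultured at 37 °C, 5% CO2, and treated next day with 5-fold serial compound dilutions (stock series from 2000 μM; 0.5 μL into 100 μL medium). Viability is read by CellTiter-Meiluncell luminescence after the set exposure, and IC50 is taken from growth-inhibition curves.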

T2 sequence (Q00534 whole entry): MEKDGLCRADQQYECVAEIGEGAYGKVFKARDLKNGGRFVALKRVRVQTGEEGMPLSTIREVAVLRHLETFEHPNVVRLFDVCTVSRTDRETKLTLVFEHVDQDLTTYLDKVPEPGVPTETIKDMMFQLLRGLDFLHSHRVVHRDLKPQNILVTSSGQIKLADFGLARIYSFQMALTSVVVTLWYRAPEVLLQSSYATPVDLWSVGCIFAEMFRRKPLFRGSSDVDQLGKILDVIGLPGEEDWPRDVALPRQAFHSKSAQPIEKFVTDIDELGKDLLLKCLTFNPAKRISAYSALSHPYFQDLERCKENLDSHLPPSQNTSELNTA
T2 sequence (Q96SW2 whole entry): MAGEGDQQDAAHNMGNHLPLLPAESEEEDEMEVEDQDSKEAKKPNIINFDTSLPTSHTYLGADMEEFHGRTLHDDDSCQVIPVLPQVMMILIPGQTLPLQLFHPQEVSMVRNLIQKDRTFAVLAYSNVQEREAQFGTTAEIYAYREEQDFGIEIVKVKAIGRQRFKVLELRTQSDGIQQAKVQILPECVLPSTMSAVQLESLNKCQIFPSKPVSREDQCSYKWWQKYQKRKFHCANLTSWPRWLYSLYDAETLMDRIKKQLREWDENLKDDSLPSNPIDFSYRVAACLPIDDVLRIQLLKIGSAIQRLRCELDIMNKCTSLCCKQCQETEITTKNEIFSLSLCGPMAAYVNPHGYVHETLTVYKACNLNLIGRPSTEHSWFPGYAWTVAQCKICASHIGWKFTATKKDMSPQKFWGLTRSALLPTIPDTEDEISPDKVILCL
T2 sequence (Q16531 whole entry partner): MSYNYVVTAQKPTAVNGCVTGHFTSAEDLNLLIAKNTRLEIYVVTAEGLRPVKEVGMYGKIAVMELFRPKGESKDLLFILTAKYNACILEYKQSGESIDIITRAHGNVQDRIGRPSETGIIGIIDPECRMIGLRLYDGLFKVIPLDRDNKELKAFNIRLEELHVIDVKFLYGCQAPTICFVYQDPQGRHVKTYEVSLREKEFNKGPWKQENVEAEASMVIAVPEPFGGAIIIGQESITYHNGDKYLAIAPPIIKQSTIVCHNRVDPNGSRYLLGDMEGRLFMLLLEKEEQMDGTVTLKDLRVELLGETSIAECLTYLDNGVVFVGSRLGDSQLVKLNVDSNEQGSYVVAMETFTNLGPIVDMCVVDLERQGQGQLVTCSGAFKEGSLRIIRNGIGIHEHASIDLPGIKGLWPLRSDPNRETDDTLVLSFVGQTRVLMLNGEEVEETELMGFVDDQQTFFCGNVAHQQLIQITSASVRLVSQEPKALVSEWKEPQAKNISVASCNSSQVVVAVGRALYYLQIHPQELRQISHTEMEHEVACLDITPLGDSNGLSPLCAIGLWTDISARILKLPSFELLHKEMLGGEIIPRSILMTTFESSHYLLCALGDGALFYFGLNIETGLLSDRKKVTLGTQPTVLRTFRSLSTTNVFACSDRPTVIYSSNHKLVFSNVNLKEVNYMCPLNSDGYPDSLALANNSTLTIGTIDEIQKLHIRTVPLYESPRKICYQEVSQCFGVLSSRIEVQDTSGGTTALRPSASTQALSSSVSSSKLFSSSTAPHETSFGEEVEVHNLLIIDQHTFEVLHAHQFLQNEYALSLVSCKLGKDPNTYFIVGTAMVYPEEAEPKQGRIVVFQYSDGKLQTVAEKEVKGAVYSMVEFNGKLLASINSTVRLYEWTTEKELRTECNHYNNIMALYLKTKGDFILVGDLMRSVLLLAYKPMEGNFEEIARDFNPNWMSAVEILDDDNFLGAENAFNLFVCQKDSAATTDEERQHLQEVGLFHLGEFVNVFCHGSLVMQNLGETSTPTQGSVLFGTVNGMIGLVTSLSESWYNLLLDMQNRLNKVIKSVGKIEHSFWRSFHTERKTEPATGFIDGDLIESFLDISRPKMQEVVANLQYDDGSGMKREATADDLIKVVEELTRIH
T1 sequence (P11802 whole entry): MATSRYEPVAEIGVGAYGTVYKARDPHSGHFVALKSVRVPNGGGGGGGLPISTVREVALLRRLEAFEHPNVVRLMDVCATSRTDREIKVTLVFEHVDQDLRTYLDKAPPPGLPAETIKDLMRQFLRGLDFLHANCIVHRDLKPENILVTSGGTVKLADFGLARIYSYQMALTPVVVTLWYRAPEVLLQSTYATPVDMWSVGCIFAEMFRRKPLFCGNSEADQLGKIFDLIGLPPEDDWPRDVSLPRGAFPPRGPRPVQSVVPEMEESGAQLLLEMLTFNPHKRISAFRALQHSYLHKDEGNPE
T1 sequence (Q96SW2 whole entry): as the sequence (Q96SW2 whole entry) above
T1 sequence (Q16531 whole entry partner): as the sequence (Q16531 whole entry partner) above
T3 sequence (Q96SW2 whole entry): as the sequence (Q96SW2 whole entry) above

Row | SMILES | Degradation of substrate protein CDK4 (substrate protein remaining %) [1] | Degradation of substrate protein CDK6 (substrate protein remaining %) [2] | inhibition at 0.5 µM ([3]; 0.5 μM, read-out: Inhibition Rate at 0.5 μM (%)) [%] | inhibition at 2 µM ([3]; 2 μM, read-out: Inhibition Rate at 2 μM (%)) [%] | inhibition at 0.01 µM ([4]; MV-4-11, 10 nM, read-out: Inhibition Rate at 10 nM (%)) [%] | inhibition at 0.5 µM ([4]; MV-4-11, 500 nM, read-out: Inhibition Rate at 500 nM (%)) [%]
1 | CN(C)C(=O)c1cc2cnc(Nc3ccc(N4CCC(N5CCN(Cc6ccc7c(c6)CN(N6CCC(=O)NC6=O)C7=O)CC5)CC4)cn3)nc2n1C1CCCC1 [GT-06497, 7-cyclopentyl-2-((5-(4-(4-((2-(2,4-dioxotetrahydropyrimidin-1(2H)-yl)-1-oxoisoindolin-5-yl)methyl)piperazin-1-yl)piperidin-1-yl)pyridin-2-yl)amino)-N,N-dimethyl-7H-pyrrolo[2,3-d]pyrimidine-6-carboxamide] | A (0%≤substrate protein remaining %≤80%) | A (0%≤substrate protein remaining %≤80%) | – | – | – | –
2 | CN(C)C(=O)c1cc2cnc(Nc3ccc(N4CCC(CN5CC6CCC(C5)N6c5ccc6c(c5)C(=O)N(N5CCC(=O)NC5=O)C6=O)CC4)cn3)nc2n1C1CCCC1 [GT-05200, 7-cyclopentyl-2-((5-(4-((8-(2-(2,4-dioxotetrahydropyrimidin-1(2H)-yl)-1,3-dioxoisoindolin-5-yl)-3,8-diazabicyclo[3.2.1]octan-3-yl)methyl)piperidin-1-yl)pyridin-2-yl)amino)-N,N-dimethyl-7H-pyrrolo[2,3-d]pyrimidine-6-carboxamide] | B (80%<substrate protein remaining %≤100%) | A (0%≤substrate protein remaining %≤80%) | – | – | – | –
3 | Cc1nc2c(F)cc(-c3nc(Nc4ccc(N5CCN(Cc6ccc7c(c6)C(=O)N(N6CCC(=O)NC6=O)C7=O)CC5)cn4)ncc3F)cc2n1C(C)C [GT-06673, 2-(2,4-dioxotetrahydropyrimidin-1(2H)-yl)-5-((4-(6-((5-fluoro-4-(4-fluoro-1-isopropyl-2-methyl-1H-benzo[d]imidazol-6-yl)pyrimidin-2-yl)amino)pyridin-3-yl)piperazin-1-yl)methyl)isoindoline-1,3-dione] | B (80%<substrate protein remaining %≤100%) | A (0%≤substrate protein remaining %≤80%) | – | – | – | –
4 | CN(C)C(=O)c1cc2cnc(Nc3ccc(N4CCN(Cc5ccc6c(c5)C(=O)N(N5CCC(=O)NC5=O)C6=O)CC4)cn3)nc2n1C1CCCC1 [GT-06336, 7-cyclopentyl-2-((5-(4-((2-(2,4-dioxotetrahydropyrimidin-1(2H)-yl)-1,3-dioxoisoindolin-5-yl)methyl)piperazin-1-yl)pyridin-2-yl)amino)-N,N-dimethyl-7H-pyrrolo[2,3-d]pyrimidine-6-carboxamide] | A (0%≤substrate protein remaining %≤80%) | B (80%<substrate protein remaining %≤100%) | – | – | – | –
5 | CN(C)C(=O)c1cc2cnc(Nc3ccc(N4CCC(CN5CCN(c6ccc7c(c6F)C(=O)N(N6CCC(=O)NC6=O)C7=O)CC5)CC4)cn3)nc2n1C1CCCC1 [GT-05203, 7-cyclopentyl-2-((5-(4-((4-(2-(2,4-dioxotetrahydropyrimidin-1(2H)-yl)-4-fluoro-1,3-dioxoisoindolin-5-yl)piperazin-1-yl)methyl)piperidin-1-yl)pyridin-2-yl)amino)-N,N-dimethyl-7H-pyrrolo[2,3-d]pyrimidine-6-carboxamide] | B (80%<substrate protein remaining %≤100%) | A (0%≤substrate protein remaining %≤80%) | – | – | – | –
6 | CN(C)C(=O)c1cc2cnc(Nc3ccc(N4CCC(CN5CC6CCC5CN6c5ccc6c(c5)C(=O)N(N5CCC(=O)NC5=O)C6=O)CC4)cn3)nc2n1C1CCCC1 (centres unmarked) [GT-05831, 7-cyclopentyl-2-((5-(4-((5-(2-(2,4-dioxotetrahydropyrimidin-1(2H)-yl)-1,3-dioxoisoindolin-5-yl)-2,5-diazabicyclo[2.2.2]octan-2-yl)methyl)piperidin-1-yl)pyridin-2-yl)amino)-N,N-dimethyl-7H-pyrrolo[2,3-d]pyrimidine-6-carboxamide] | B (80%<substrate protein remaining %≤100%) | A (0%≤substrate protein remaining %≤80%) | – | – | – | –
7 | CN(C)C(=O)c1cc2cnc(Nc3ccc(N4CCC(N(C)Cc5ccc6c(c5)C(=O)N(N5CCC(=O)NC5=O)C6=O)CC4)cn3)nc2n1C1CCCC1 [GT-06488, 7-cyclopentyl-2-((5-(4-(((2-(2,4-dioxotetrahydropyrimidin-1(2H)-yl)-1,3-dioxoisoindolin-5-yl)methyl)(methyl)amino)piperidin-1-yl)pyridin-2-yl)amino)-N,N-dimethyl-7H-pyrrolo[2,3-d]pyrimidine-6-carboxamide] | B (80%<substrate protein remaining %≤100%) | A (0%≤substrate protein remaining %≤80%) | – | – | – | –
8 | Cc1nc2c(F)cc(-c3nc(Nc4ccc(CN5CCN(CC6CCN(c7ccc8c(c7)C(=O)N(N7CCC(=O)NC7=O)C8=O)CC6)CC5)cn4)ncc3F)cc2n1C(C)C [GT-06662, 2-(2,4-dioxotetrahydropyrimidin-1(2H)-yl)-5-(4-((4-((6-((5-fluoro-4-(4-fluoro-1-isopropyl-2-methyl-1H-benzo[d]imidazol-6-yl)pyrimidin-2-yl)amino)pyridin-3-yl)methyl)piperazin-1-yl)methyl)piperidin-1-yl)isoindoline-1,3-dione] | B (80%<substrate protein remaining %≤100%) | A (0%≤substrate protein remaining %≤80%) | 30 to 40 | 53 to 60 | – | –
9 | CN(C)C(=O)c1cc2cnc(Nc3ccc(N4CCC(N5CCN(Cc6ccc7c(c6)C(=O)N(N6CCC(=O)NC6=O)C7=O)CC5)CC4)cn3)nc2n1C1CCCC1 [GT-06498, 7-cyclopentyl-2-((5-(4-(4-((2-(2,4-dioxotetrahydropyrimidin-1(2H)-yl)-1,3-dioxoisoindolin-5-yl)methyl)piperazin-1-yl)piperidin-1-yl)pyridin-2-yl)amino)-N,N-dimethyl-7H-pyrrolo[2,3-d]pyrimidine-6-carboxamide] | A (0%≤substrate protein remaining %≤80%) | A (0%≤substrate protein remaining %≤80%) | – | – | – | –
10 | CC(=O)c1c(C)c2cnc(Nc3ccc(N4CCC(N(C)Cc5ccc6c(c5)CN(N5CCC(=O)NC5=O)C6=O)CC4)cn3)nc2n(C2CCCC2)c1=O [GT-06586, 1-(5-(((1-(6-((6-acetyl-8-cyclopentyl-5-methyl-7-oxo-7,8-dihydropyrido[2,3-d]pyrimidin-2-yl)amino)pyridin-3-yl)piperidin-4-yl)(methyl)amino)methyl)-1-oxoisoindolin-2-yl)dihydropyrimidine-2,4 (1H,3H)-dione] | A (0%≤substrate protein remaining %≤80%) | A (0%≤substrate protein remaining %≤80%) | – | – | 25 to 30 | 40 to 60
11 | CN(C)C(=O)c1cc2cnc(Nc3ccc(N4CCN(CC5CCN(c6ccc7c(c6)C(=O)N(N6CCC(=O)NC6=O)C7=O)CC5)CC4)cn3)nc2n1C1CCCC1 [GT-06337, 7-cyclopentyl-2-((5-(4-((1-(2-(2,4-dioxotetrahydropyrimidin-1(2H)-yl)-1,3-dioxoisoindolin-5-yl)piperidin-4-yl)methyl)piperazin-1-yl)pyridin-2-yl)amino)-N,N-dimethyl-7H-pyrrolo[2,3-d]pyrimidine-6-carboxamide] | B (80%<substrate protein remaining %≤100%) | A (0%≤substrate protein remaining %≤80%) | – | – | – | –
